In publication PMC10641921, “Optimization of mTOR Inhibitors Using Property-Based Drug Design and Free–Wilson Analysis for Improved In Vivo Efficacy” (ACS Medicinal Chemistry Letters, 2023):

System: pAKT-S473 in PC-3 cells (TORC2)
Assay: Cellular p-AKT (ser473) AlphaScreen assay in PC-3 cells (TORC2 activity)
Assay type: cell-based, human
Conditions: Homo sapiens, PC-3, PC-3 cell line; read-out: pAKT S473 Cell IC50
Method: The target product profile for 1 and the next-generation analogs described here was for a dual inhibitor against both TORC1 and TORC2.
FRAP1 (mTOR) recombinant protein and GFP-4E-BP1 were purchased from Invitrogen (Carlsbad, CA, US).
The kinase activity assay was conducted in 50 mM Hepes buffer containing 10 mM MgCl2, 0.01% Brij, 0.2 mM EDTA, 2 mM DTT and 1% DMSO (after compound addition) at pH 7.3.
The IC50 value for each compound was determined in the presence of compound (various concentrations, from 0 to 10 μM) and a fixed amount of ATP (50 μM, final concentration), substrate GFP-4E-BP1 (400 nM, final concentration). The enzymatic reaction was initiated by adding FRAP1 (mTOR) (2 nM, final concentration). The assay was conducted at room temperature (~22 °C). After 30 min, the enzymatic reaction was stopped using Tb-anti-p4E-BP1 (2 nM final concentration, Invitrogen) and EDTA (20 mM final concentration, Sigma) in TR-FRET dilution buffer provided by Invitrogen. All the reagents were dispensed using a Multidrop Combi reagent dispenser (ThermoFisher Scientific, Waltham, […]
The release of product was detected using a BMG PHERAstar plate reader (BMG LABTECH, Ortenberg, Germany) and the Lantha Screen module (337 nm excitation wavelength) and measuring the ratio of fluorescence 520/490 nm (emission wavelengths). Experimental data was fitted using Eq. (1):
Vi and Vo are the rates of the enzyme activity in the presence and in the absence of inhibitor; n is the Hill coefficient; I is the free inhibitor concentration; IC 50 is a measure of potency that is equivalent to a […]
Cellular p-AKT (ser473) assay in PC-3 cells
PC-3 cells (PTEN deleted, human prostate cell line) were maintained in F12K media with 10% heat-inactivated fetal bovine serum (FBS) in 37 °C, 5% CO2 incubator. This method describes the procedure […]
from Perkin Elmer (catalog# TGRAS500). On day 1, 50,000 PC-3 cells were plated in 160 µL complete […]
Plates were placed in 37 °C, 5%
CO2 incubator for 24 h. On day 2, all media was removed and replaced with 160 µL starvation media which is F12K media (no FBS) and 0.1% BSA. Plates are placed in 37 °C, 5% CO2 incubator for 16 h. On day 3, compounds were both solubilized and serially diluted in DMSO and added to a secondary plate containing starvation media. 40 µL of compound/starvation media were added to the 160 µL in cell plate and plates were placed back in the incubator for 1 h. Cells were then activated by adding 22 µL FBS (for a final concentration of 10% FBS) for 10 min in the incubator. Media was removed from the well and cells were lysed in 100 µL SureFire kit lysis buffer and then shake n for 15 min at 900 rpm. AlphaScreen […]
assay was performed according to manufacturer’s instructions. 4 µL of lysate was added to PerkinElmer 96-well Proxiplate then 5 µL of Reaction Buffer plus Activation Buffer. Plates were shaken for 2 h at room temperature. 2 µL of Donor Beads in Dilution Buffer were added to the plate and the plate was shaken for 2 h at room temperature. The plate was read using BMG Labtech PHERAstar using AlphaScreen settings. Each analog was run in duplicate wells and a single IC50 value was calculated in […]

Row | SMILES | IC50
1 | Cc1ncc(-c2ncc3c(n2)N2CCOC[C@@]2(C)C(=O)N3C2CCOCC2)c2cc[nH]c12 [4h] | 48 nM
2 | C[C@@]12COCCN1c1nc(-c3ccc(NC(=O)NC4CC4)cc3)ncc1N(C1CCOCC1)C2=O [4a] | 42 nM
3 | Cc1ccc(-c2ncc3c(n2)N2CCOC[C@@]2(C)C(=O)N3C2CCOCC2)c2cc[nH]c12 [4g] | 26 nM
4 | C[C@@]12COCCN1c1nc(-c3cncc4[nH]ccc34)ncc1N(C1CCOCC1)C2=O [4f] | 17 nM
5 | Cc1cccc2c(-c3ncc4c(n3)N3CCOC[C@@]3(C)C(=O)N4C3CCOCC3)c[nH]c12 [4i] | 9 nM

Same assay, conditions: Homo sapiens, PC-3, read-out: Cell pEC50 (converted)

Row | SMILES | EC50
6 | Cc1cccc2c(-c3ncc4c(n3)N3CCOC[C@@]3(C)C(=O)N4C3(CCO)CC3)c[nH]c12 [15e] | 4.57 nM
7 | CC(=O)N1CCC(N2C(=O)[C@]3(C)COCCN3c3nc(-c4cccc5[nH]ccc45)ncc32)CC1 [14a] | 55 nM
8 | C[C@@]12COCCN1c1nc(-c3cnc4[nH]ccc4c3)ncc1N(C1CCN(S(C)(=O)=O)CC1)C2=O [13e] | 120 nM

Same assay, conditions: Homo sapiens, PC-3, read-out: pAKT S473 Cell IC50

Row | SMILES | IC50
9 | CC(=O)N1CCC(N2C(=O)[C@]3(C)COCCN3c3nc(-c4cccc5[nH]ccc45)ncc32)CC1 [14a] | 55 nM
10 | C[C@@]12COCCN1c1nc(-c3cnc4[nH]ccc4c3)ncc1N(C1CCN(S(C)(=O)=O)CC1)C2=O [13e] | 120 nM

Same assay, conditions: Homo sapiens, PC-3, read-out: pAKT S473 Cell IC50, PC-3 cell line

Row | SMILES | IC50
11 | Cc1cccc2c(-c3ncc4c(n3)N3CCOC[C@@]3(C)C(=O)N4C3(CCO)CC3)c[nH]c12 [15e] | 5 nM

Same assay, conditions: Homo sapiens; p-AKT S473, PC-3 cells; mean of N runs; read-out: Cell pEC50 (converted)

Row | SMILES | EC50
12 | Cc1ncc(-c2ncc3c(n2)N2CCOC[C@@]2(C)C(=O)N3C2CCOCC2)c2cc[nH]c12 [4h] | 47.9 nM
13 | C[C@@]12COCCN1c1nc(-c3ccc(NC(=O)NC4CC4)cc3)ncc1N(C1CCOCC1)C2=O [4a] | 41.7 nM
14 | Cc1ccc(-c2ncc3c(n2)N2CCOC[C@@]2(C)C(=O)N3C2CCOCC2)c2cc[nH]c12 [4g] | 25.7 nM
15 | C[C@@]12COCCN1c1nc(-c3cncc4[nH]ccc34)ncc1N(C1CCOCC1)C2=O [4f] | 16.6 nM
16 | Cc1cccc2c(-c3ncc4c(n3)N3CCOC[C@@]3(C)C(=O)N4C3CCOCC3)c[nH]c12 [4i] | 8.71 nM

System: not listed separately
Assay: Human liver microsome intrinsic clearance
Assay type: in vitro ADME
Conditions: apparent intrinsic clearance, scaled

Row | SMILES | HLM Clint
17 | Cc1cccc2c(-c3ncc4c(n3)N3CCOC[C@@]3(C)C(=O)N4C3(CCO)CC3)c[nH]c12 [15e] | 6 mL min^–1 kg^–1
18 | Cc1ccc(-c2ncc3c(n2)N2CCOC[C@@]2(C)C(=O)N3[C@H]2CC[C@@H](O)CC2)c2cc[nH]c12 [15c] | 8 mL min^–1 kg^–1
19 | Cc1cccc2c(-c3ncc4c(n3)N3CCOC[C@@]3(C)C(=O)N4[C@H]3CC[C@@H](O)CC3)c[nH]c12 [15d] | 7 mL min^–1 kg^–1
20 | CC(=O)N1CCC(N2C(=O)[C@]3(C)COCCN3c3nc(-c4cccc5[nH]ccc45)ncc32)CC1 [14a] | 6 mL min^–1 kg^–1
21 | Cc1ccc(-c2ncc3c(n2)N2CCOC[C@@]2(C)C(=O)N3[C@H]2CC[C@H](O)CC2)c2cc[nH]c12 [15a] | 6 mL min^–1 kg^–1
22 | C[C@@]12COCCN1c1nc(-c3cnc4[nH]ccc4c3)ncc1N(C1CCN(S(C)(=O)=O)CC1)C2=O [13e] | 6 mL min^–1 kg^–1
23 | Cc1cccc2c(-c3ncc4c(n3)N3CCOC[C@@]3(C)C(=O)N4[C@H]3CC[C@H](O)CC3)c[nH]c12 [15b] | 7 mL min^–1 kg^–1

Target: T1, CYP2C8 (Homo sapiens, UniProt P10632)
T1 sequence (P10632 1-490): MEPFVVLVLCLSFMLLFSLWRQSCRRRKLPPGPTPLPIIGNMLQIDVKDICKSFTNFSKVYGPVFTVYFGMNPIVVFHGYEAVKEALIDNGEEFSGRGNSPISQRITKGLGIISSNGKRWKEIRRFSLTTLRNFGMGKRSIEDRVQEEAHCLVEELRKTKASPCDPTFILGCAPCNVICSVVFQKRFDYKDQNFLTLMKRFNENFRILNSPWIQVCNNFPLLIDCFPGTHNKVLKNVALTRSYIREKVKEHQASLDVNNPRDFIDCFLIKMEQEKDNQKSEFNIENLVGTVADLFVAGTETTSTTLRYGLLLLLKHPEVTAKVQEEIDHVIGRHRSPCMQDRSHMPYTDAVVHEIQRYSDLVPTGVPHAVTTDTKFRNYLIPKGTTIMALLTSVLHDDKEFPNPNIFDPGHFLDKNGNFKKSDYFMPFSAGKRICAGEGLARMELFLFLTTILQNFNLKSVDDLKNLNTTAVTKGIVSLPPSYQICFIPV
Assay: CYP inhibition, 2C8
Assay type: in vitro ADME
Conditions: most potently inhibited CYP isoform

Row | SMILES | IC50
24 | Cc1cccc2c(-c3ncc4c(n3)N3CCOC[C@@]3(C)C(=O)N4C3(CCO)CC3)c[nH]c12 [15e] | 1300 nM
25 | Cc1ccc(-c2ncc3c(n2)N2CCOC[C@@]2(C)C(=O)N3[C@H]2CC[C@@H](O)CC2)c2cc[nH]c12 [15c] | 3000 nM
26 | Cc1cccc2c(-c3ncc4c(n3)N3CCOC[C@@]3(C)C(=O)N4[C@H]3CC[C@@H](O)CC3)c[nH]c12 [15d] | 800 nM
27 | Cc1cccc2c(-c3ncc4c(n3)N3CCOC[C@@]3(C)C(=O)N4[C@H]3CC[C@H](O)CC3)c[nH]c12 [15b] | 3000 nM
28 | Cc1cccc2c(-c3ncc4c(n3)N3CCOC[C@@]3(C)C(=O)N4C3CCOCC3)c[nH]c12 [4i] | 1000 nM

System: PI3Kα
Assay: PI3Kα enzyme selectivity (PI3Kα IC50 over mTOR IC50)
Assay type: biochemical
Conditions: ratio of PI3Kα enzyme IC50 over mTOR enzyme IC50

Row | SMILES | PI3Kα Sel
29 | Cc1ncc(-c2ncc3c(n2)N2CCOC[C@@]2(C)C(=O)N3C2CCOCC2)c2cc[nH]c12 [4h] | 270x
30 | C[C@@]12COCCN1c1nc(-c3ccc(NC(=O)NC4CC4)cc3)ncc1N(C1CCOCC1)C2=O [4a] | 63x
31 | Cc1ccc(-c2ncc3c(n2)N2CCOC[C@@]2(C)C(=O)N3C2CCOCC2)c2cc[nH]c12 [4g] | 450x
32 | C[C@@]12COCCN1c1nc(-c3cncc4[nH]ccc34)ncc1N(C1CCOCC1)C2=O [4f] | 84x
33 | Cc1cccc2c(-c3ncc4c(n3)N3CCOC[C@@]3(C)C(=O)N4C3CCOCC3)c[nH]c12 [4i] | 640x

Same assay, conditions: ratio of PI3Kα enzyme IC50 over mTOR enzyme IC50; Table 2, unit not given

Row | SMILES | PI3Kα Sel
34 | CC(=O)N1CCC(N2C(=O)[C@]3(C)COCCN3c3nc(-c4cccc5[nH]ccc45)ncc32)CC1 [14a] | 120
35 | C[C@@]12COCCN1c1nc(-c3cnc4[nH]ccc4c3)ncc1N(C1CCN(S(C)(=O)=O)CC1)C2=O [13e] | 14

System: not listed separately
Assay: Rat PK (iv and po)
Assay type: in vivo
Conditions: estimated from %F, Cl and Qh = 70 mL min^–1 kg^–1
Source text: This was an early indication that the strategy of increasing potency while lowering lipophilicity would allow us to meet our goal of improving prospects for favorable PK and dose.

Row | SMILES | frac. abs.
36 | Cc1ccc(-c2ncc3c(n2)N2CCOC[C@@]2(C)C(=O)N3[C@H]2CC[C@H](O)CC2)c2cc[nH]c12 [15a] | 41%

Same assay, conditions: in vivo, 4 mg/kg, iv 1 mpk, po 4 mpk in 0.5% methylcellulose

Row | SMILES | bioavailability
37 | Cc1ccc(-c2ncc3c(n2)N2CCOC[C@@]2(C)C(=O)N3[C@H]2CC[C@H](O)CC2)c2cc[nH]c12 [15a] | 35%

Same assay, conditions: iv 1 mpk

Row | SMILES | Cl | Vd
38 | Cc1ccc(-c2ncc3c(n2)N2CCOC[C@@]2(C)C(=O)N3[C@H]2CC[C@H](O)CC2)c2cc[nH]c12 [15a] | 10 mL min^–1 kg^–1 | 1.6 L/kg

Same assay, conditions: po 4 mpk in 0.5% methylcellulose

Row | SMILES | Cmax
39 | Cc1ccc(-c2ncc3c(n2)N2CCOC[C@@]2(C)C(=O)N3[C@H]2CC[C@H](O)CC2)c2cc[nH]c12 [15a] | 570 nM

Target: CYP-2C9 (Homo sapiens, UniProt P11712)
Assay: CYP inhibition, 2C9
Assay type: in vitro ADME
Conditions: most potently inhibited isoform was CYP-2C9
Source text: Table 3 New Combinations from Free–Wilson Analysis | column: CYP IC50/μM ^c

Chain of CYP-2C9 (P11712 whole entry): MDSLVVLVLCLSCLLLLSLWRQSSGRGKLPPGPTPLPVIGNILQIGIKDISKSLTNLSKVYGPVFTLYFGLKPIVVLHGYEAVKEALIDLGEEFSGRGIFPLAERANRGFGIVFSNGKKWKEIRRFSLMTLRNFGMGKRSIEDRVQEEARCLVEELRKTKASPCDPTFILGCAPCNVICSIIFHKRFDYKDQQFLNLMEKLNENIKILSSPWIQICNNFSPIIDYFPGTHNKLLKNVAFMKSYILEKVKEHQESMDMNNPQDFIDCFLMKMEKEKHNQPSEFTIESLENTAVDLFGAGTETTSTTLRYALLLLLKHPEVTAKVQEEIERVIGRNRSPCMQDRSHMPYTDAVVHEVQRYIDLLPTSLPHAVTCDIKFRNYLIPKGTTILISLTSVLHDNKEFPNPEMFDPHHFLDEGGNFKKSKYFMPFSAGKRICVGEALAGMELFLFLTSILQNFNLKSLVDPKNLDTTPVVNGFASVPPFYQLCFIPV

Row | SMILES | IC50
40 | Cc1ccc(-c2ncc3c(n2)N2CCOC[C@@]2(C)C(=O)N3[C@H]2CC[C@H](O)CC2)c2cc[nH]c12 [15a] | 5000 nM
